{"source": "patent US7977322B2", "about": "(Vertex Pharmaceuticals Incorporated, priority 2004, dated 2011)", "target": "T1, ΔF508-CFTR (Homo sapiens, UniProt P13569, DEL508-508)", "T1 construct": "expressed in transfected cells", "T1 sequence (P13569 with tags, fused parts or gaps DEL508-508)": "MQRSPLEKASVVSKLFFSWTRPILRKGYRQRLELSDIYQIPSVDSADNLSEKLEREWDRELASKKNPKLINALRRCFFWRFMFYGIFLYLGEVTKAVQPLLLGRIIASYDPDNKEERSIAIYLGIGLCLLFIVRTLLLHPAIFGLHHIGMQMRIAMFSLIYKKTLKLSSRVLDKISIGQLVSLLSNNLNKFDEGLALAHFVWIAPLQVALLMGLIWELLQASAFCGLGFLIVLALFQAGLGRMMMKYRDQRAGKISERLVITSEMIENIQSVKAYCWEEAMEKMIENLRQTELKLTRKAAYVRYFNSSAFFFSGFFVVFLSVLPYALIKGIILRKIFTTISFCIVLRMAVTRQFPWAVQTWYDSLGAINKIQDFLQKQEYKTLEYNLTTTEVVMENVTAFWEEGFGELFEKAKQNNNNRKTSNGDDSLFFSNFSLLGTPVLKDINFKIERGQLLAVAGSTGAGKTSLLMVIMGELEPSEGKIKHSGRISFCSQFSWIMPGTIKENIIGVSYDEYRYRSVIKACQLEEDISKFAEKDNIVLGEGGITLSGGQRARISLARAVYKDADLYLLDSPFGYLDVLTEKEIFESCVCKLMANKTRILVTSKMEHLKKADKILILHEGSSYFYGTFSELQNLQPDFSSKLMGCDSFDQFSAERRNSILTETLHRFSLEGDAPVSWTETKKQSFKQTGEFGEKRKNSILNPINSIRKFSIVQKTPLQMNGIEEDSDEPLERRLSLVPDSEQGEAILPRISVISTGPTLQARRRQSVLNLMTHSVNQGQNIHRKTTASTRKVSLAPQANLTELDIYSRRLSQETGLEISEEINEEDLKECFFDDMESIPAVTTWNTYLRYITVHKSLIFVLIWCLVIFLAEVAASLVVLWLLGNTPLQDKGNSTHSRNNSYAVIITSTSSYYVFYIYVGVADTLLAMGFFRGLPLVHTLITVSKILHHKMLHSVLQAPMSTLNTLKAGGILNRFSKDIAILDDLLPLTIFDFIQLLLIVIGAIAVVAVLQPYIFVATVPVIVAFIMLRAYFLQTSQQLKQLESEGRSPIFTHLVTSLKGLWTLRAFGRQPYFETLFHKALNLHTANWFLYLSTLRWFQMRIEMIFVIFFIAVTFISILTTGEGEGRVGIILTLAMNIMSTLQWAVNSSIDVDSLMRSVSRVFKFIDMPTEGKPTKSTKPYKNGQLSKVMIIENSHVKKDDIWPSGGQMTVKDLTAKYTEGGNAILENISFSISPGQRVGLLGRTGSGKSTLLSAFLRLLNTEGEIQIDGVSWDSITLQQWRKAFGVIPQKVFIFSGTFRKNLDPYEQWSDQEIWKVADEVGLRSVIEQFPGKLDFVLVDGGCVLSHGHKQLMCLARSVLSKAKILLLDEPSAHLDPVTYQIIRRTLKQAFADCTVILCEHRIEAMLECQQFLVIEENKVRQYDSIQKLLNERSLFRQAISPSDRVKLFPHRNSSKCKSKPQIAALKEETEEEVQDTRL", "test": "Membrane potential optical (FRET/VIPR) assay, identification of correction compounds", "assay_type": "cell-based", "conditions": "Table 3, assay not given; for Emax: read-out: % Activity / % Efficacy (relative efficacy)", "in_short": "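NIH3T3 mouse fibroblasts stably expressing ΔF508-CFTR were exposed to compound for 16 h at 37° C in serum-free medium, then loaded with DiSBAC2(3)/CC2-DMPE. After addition of 10 μM forskolin plus 20 μM genistein in Cl⁻-free gluconate bath (pH 7.4), depolarization from Cl⁻ efflux was read by FRET (VIPR II).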"}
{"smiles": "NC(=O)C1CCCN(C(c2cnc(NC(=O)C3(c4ccc5c(c4)OCO5)CC3)s2)c2ccccc2Cl)C1", "note": "(stereo not drawn) [Example 418]", "values": [{"measurement": "EC50", "result": "< 10", "unit": "µM"}, {"measurement": "Emax", "result": "> 100", "unit": "%"}]}
{"smiles": "CCOC(c1cnc(NC(=O)C2(c3ccc4c(c3)OCO4)CC2)s1)c1ccccc1Cl", "note": "(stereo not drawn) [Example 240]", "values": [{"measurement": "% Activity / % Efficacy (relative efficacy)", "result": "+++ (“+++” means>100%)"}, {"measurement": "EC50", "result": "< 10", "unit": "µM"}]}
{"smiles": "O=C(Nc1nn(-c2ccccc2)cc1-c1cccs1)C1(c2ccc3c(c2)OCO3)CC1", "note": "[Example 286]", "values": [{"measurement": "EC50", "result": "10 to 25", "unit": "µM"}, {"measurement": "Emax", "result": "25 to 100", "unit": "%"}]}
{"smiles": "Cc1ccccc1Cc1cnc(NC(=O)C2(c3ccc4c(c3)OCO4)CC2)s1", "note": "[Example 281]", "values": [{"measurement": "% Activity / % Efficacy (relative efficacy)", "result": "+++ (“+++” means>100%)"}, {"measurement": "EC50", "result": "< 10", "unit": "µM"}]}
{"smiles": "COC(=O)Cn1cc(Cc2ccccc2Cl)sc1=NC(=O)C1(c2ccc(OC)cc2)CC1", "note": "[Example 72]", "values": [{"measurement": "% Activity / % Efficacy (relative efficacy)", "result": "++ (“++” means between 25% to 100%)"}, {"measurement": "EC50", "result": "25 to 60", "unit": "µM"}]}
{"smiles": "COc1cccc(C(c2cnc(NC(=O)C3(c4ccc5c(c4)OCO5)CC3)s2)N2CC[C@@H](O)C2)c1", "note": "(stereo partly drawn) [Example 367]", "values": [{"measurement": "EC50", "result": "< 10", "unit": "µM"}, {"measurement": "Emax", "result": "> 100", "unit": "%"}]}
{"smiles": "O=C(Nc1ncc(Cc2ccccc2Cl)s1)C1(c2ccccc2F)CCCCC1", "note": "[Example 306]", "values": [{"measurement": "EC50", "result": "< 10", "unit": "µM"}, {"measurement": "Emax", "result": "> 100", "unit": "%"}]}
{"smiles": "CCCN(CC1CC1)C(c1cnc(NC(=O)C2(c3ccc4c(c3)OCO4)CC2)s1)c1ccccc1Cl", "note": "(stereo not drawn) [Example 435]", "values": [{"measurement": "EC50", "result": "< 10", "unit": "µM"}, {"measurement": "Emax", "result": "> 100", "unit": "%"}]}
{"smiles": "COc1ccccc1C(c1cnc(NC(=O)C2(c3ccc4c(c3)OCO4)CC2)s1)N1CCOCC1", "note": "(stereo not drawn) [Example 399]", "values": [{"measurement": "EC50", "result": "< 10", "unit": "µM"}, {"measurement": "Emax", "result": "> 100", "unit": "%"}]}
{"smiles": "COc1ccc(C2(C(=O)Nc3nc(-c4ccccc4)cs3)CC2)cc1", "note": "[Example 17]", "values": [{"measurement": "EC50", "result": "< 10", "unit": "µM"}, {"measurement": "Emax", "result": "> 100", "unit": "%"}]}
{"smiles": "O=C(Nc1ncc(C(c2ccccc2F)N2CCCC2)s1)C1(c2ccc3c(c2)OCO3)CC1", "note": "(stereo not drawn) [Example 465]", "values": [{"measurement": "EC50", "result": "< 10", "unit": "µM"}, {"measurement": "Emax", "result": "> 100", "unit": "%"}]}
{"smiles": "CC(C)(C)C(c1cnc(NC(=O)C2(c3ccc4c(c3)OCO4)CC2)s1)N1CC[C@@H](O)C1", "note": "(stereo partly drawn) [Example 390]", "values": [{"measurement": "EC50", "result": "10 to 25", "unit": "µM"}, {"measurement": "Emax", "result": "> 100", "unit": "%"}]}
{"smiles": "CCN(CC)C(Cc1ccccc1Cl)c1cnc(NC(=O)C2(c3ccc4c(c3)OCO4)CC2)s1", "note": "(stereo not drawn) [Example 459]", "values": [{"measurement": "EC50", "result": "< 10", "unit": "µM"}, {"measurement": "Emax", "result": "> 100", "unit": "%"}]}
{"smiles": "C[C@@H](CO)NC(c1cnc(NC(=O)C2(c3ccc4c(c3)OCO4)CC2)s1)c1ccccc1Cl", "note": "(stereo partly drawn) [Example 437]", "values": [{"measurement": "EC50", "result": "< 10", "unit": "µM"}]}
{"smiles": "Cc1csc(NC(=O)C2(c3ccc4c(c3)OCO4)CC2)c1C(N)=O", "note": "[Example 289]", "values": [{"measurement": "EC50", "result": "< 10", "unit": "µM"}, {"measurement": "Emax", "result": "25 to 100", "unit": "%"}]}
{"smiles": "O=C(Nc1nc(-c2ccc(Cl)c(Cl)c2)cs1)C1(c2ccc3c(c2)OCO3)CC1", "note": "[Example 117]", "values": [{"measurement": "EC50", "result": "10 to 25", "unit": "µM"}, {"measurement": "Emax", "result": "25 to 100", "unit": "%"}]}
{"smiles": "COCCNC(c1cnc(NC(=O)C2(c3ccc4c(c3)OCO4)CC2)s1)c1ccccc1Cl", "note": "(stereo not drawn) [Example 439]", "values": [{"measurement": "EC50", "result": "< 10", "unit": "µM"}, {"measurement": "Emax", "result": "> 100", "unit": "%"}]}
{"smiles": "O=C(Nc1ncc(C(c2ccc(Cl)cc2Cl)N2CCCC2)s1)C1(c2ccc3c(c2)OCO3)CC1", "note": "(stereo not drawn) [Example 467]", "values": [{"measurement": "EC50", "result": "< 10", "unit": "µM"}, {"measurement": "Emax", "result": "> 100", "unit": "%"}]}
{"smiles": "CC(C)OC(c1cnc(NC(=O)C2(c3ccc4c(c3)OCO4)CC2)s1)c1ccccc1Cl", "note": "(stereo not drawn) [Example 261]", "values": [{"measurement": "% Activity / % Efficacy (relative efficacy)", "result": "+++ (“+++” means>100%)"}, {"measurement": "EC50", "result": "< 10", "unit": "µM"}]}
{"smiles": "O=C(Nc1ncc(C(c2cccc3c2OC(F)(F)O3)N2CC[C@@H](O)C2)s1)C1(c2ccc3c(c2)OCO3)CC1", "note": "(stereo partly drawn) [Example 496]", "values": [{"measurement": "EC50", "result": "< 10", "unit": "µM"}, {"measurement": "Emax", "result": "25 to 100", "unit": "%"}]}
{"smiles": "COc1ccc(CC2(C(=O)Nc3ncc(Cc4ccccc4Cl)s3)CC2)cc1", "note": "[Example 201]", "values": [{"measurement": "% Activity / % Efficacy (relative efficacy)", "result": "++ (“++” means between 25% to 100%)"}, {"measurement": "EC50", "result": "< 10", "unit": "µM"}]}
{"smiles": "O=C(Nc1nnc(-c2ccccc2)s1)C1(c2ccc3c(c2)OCO3)CC1", "note": "[Example 293]", "values": [{"measurement": "EC50", "result": "10 to 25", "unit": "µM"}, {"measurement": "Emax", "result": "25 to 100", "unit": "%"}]}
{"smiles": "Cc1cnc(NC(=O)C2(c3ccc4c(c3)OCO4)CC2)s1", "note": "[Example 85]", "values": [{"measurement": "% Activity / % Efficacy (relative efficacy)", "result": "+++ (“+++” means>100%)"}, {"measurement": "EC50", "result": "< 10", "unit": "µM"}]}
{"smiles": "O=C(Nc1ncc(C(NCC2CCCCC2)c2ccccc2Cl)s1)C1(c2ccc3c(c2)OCO3)CC1", "note": "(stereo not drawn) [Example 409]", "values": [{"measurement": "EC50", "result": "< 10", "unit": "µM"}, {"measurement": "Emax", "result": "> 100", "unit": "%"}]}
{"smiles": "C=CCOC(c1cnc(NC(=O)C2(c3ccc4c(c3)OCO4)CC2)s1)c1ccccc1Cl", "note": "(stereo not drawn) [Example 251]", "values": [{"measurement": "EC50", "result": "< 10", "unit": "µM"}, {"measurement": "Emax", "result": "> 100", "unit": "%"}]}
{"smiles": "COc1ccc(C2(C(=O)Nc3ncc(Cc4ccccc4OC)o3)CC2)cc1", "note": "[Example 156]", "values": [{"measurement": "EC50", "result": "< 10", "unit": "µM"}, {"measurement": "Emax", "result": "> 100", "unit": "%"}]}
{"smiles": "CC(C)C[C@@H](CO)NC(c1cnc(NC(=O)C2(c3ccc4c(c3)OCO4)CC2)s1)c1ccccc1Cl", "note": "(stereo partly drawn) [Example 495]", "values": [{"measurement": "EC50", "result": "< 10", "unit": "µM"}, {"measurement": "Emax", "result": "25 to 100", "unit": "%"}]}
{"smiles": "O=C(Nc1ncc(C(c2ccc(Cl)cc2Cl)N2CC[C@@H](O)C2)s1)C1(c2ccc3c(c2)OCO3)CC1", "note": "(stereo partly drawn) [Example 470]", "values": [{"measurement": "EC50", "result": "< 10", "unit": "µM"}, {"measurement": "Emax", "result": "> 100", "unit": "%"}]}
{"smiles": "COc1nonc1NC(=O)C1(c2ccc3c(c2)OCO3)CC1", "note": "[Example 292]", "values": [{"measurement": "EC50", "result": "10 to 25", "unit": "µM"}, {"measurement": "Emax", "result": "25 to 100", "unit": "%"}]}
{"smiles": "CC(=O)NCCNC(c1cnc(NC(=O)C2(c3ccc4c(c3)OCO4)CC2)s1)c1ccccc1Cl", "note": "(stereo not drawn) [Example 436]", "values": [{"measurement": "EC50", "result": "< 10", "unit": "µM"}, {"measurement": "Emax", "result": "> 100", "unit": "%"}]}
{"smiles": "CCOc1ccccc1C(N[C@@H](CO)C(C)C)c1cnc(NC(=O)C2(c3ccc4c(c3)OCO4)CC2)s1", "note": "(stereo partly drawn) [Example 478]", "values": [{"measurement": "EC50", "result": "< 10", "unit": "µM"}]}
